Measurements as given in US20210252104A1, “ANTIBACTERIAL PEPTIDE MONOMERS AND COMBINATIONS FOR CO-THERAPY” (ARREVUS, INC., priority 2018, published 2021).
Converted amounts (≈) assume the structure as drawn. Where two headings read alike, the source gives them in different places. Positions of bridges follow the written chain, without caps; N, C: chain ends. Non-standard residues stand in square brackets, D forms with d. Residues, ends and D or L forms follow the SMILES beside them. Chains are numbered I, II in the order given. *: point of attachment. X2 = CN(C)C(=N[C@@H](CCCNC(=N)N)C(=O)*)N(C)C; aThr = C[C@H](O)[C@H](N)C(=O)O; Ac6c = NC1(C(=O)O)CCCCC1; Dab = NCC[C@H](N)C(=O)O; Nva = CCC[C@H](N)C(=O)O; Pentanoyl = CCCCC(=O)*; Butyryl = CCCC(=O)*; NHNH2 = NN*

Assays:
K. pneumoniae K97/09 [1] = experiment: FIC checkerboard assay (combinations); assay type: cell-based; settings: for Effect of combining antimicrobials on MIC: K97/09, with imipenem or colistin
[2] = system: A. baumannii strain (BAA-1605); experiment: FIC checkerboard assay (combinations); assay type: cell-based; settings: with imipenem (or colistin)
K. pneumoniae K97/09 [3] = system: K. pneumoniae K97/09
[4] = system: Burkholderia pseudomallei 1026b; assay type: in vivo; settings: for B. pseudomallei load in survivals (CFU/spleen) / total number of samples analyzed/samples with CFU > 10^8: day 62; for B. pseudomallei load in survivals (CFU/spleen): mean of samples with <10^8 CFU/spleen; for Number of deaths: every 6 h for 21 days, 10 mice, to day 62; for total number of samples analyzed/samples with CFU > 10^8: spleens
in vitro = settings: rat, H-4-II-E cells (ATCC CRL-1548)
[5] = system: Acinetobacter baumannii BAA-1805 (MACI)
[6] = system: A. baumannii strain (BAA-1605); experiment: microbe, parasite or virus in culture; assay type: cell-based

With CCC[C@H](NC(=O)[C@H](CCC(=O)O)NC(=O)[C@@H](N)[C@H](C)O)C(=O)N[C@H](C(=O)N[C@@H](C)C(=O)N[C@@H](CC(C)C)C(=O)N[C@@H](CO)C(=O)N[C@@H](CCCNC(=N)N)C(=O)NC1(C(N)=O)CCCCC1)C(C)C [Allo-aca] (H-[aThr]E[Nva]VALSR[Ac6c]-NH2) the “Effect of combining antimicrobials on MIC” value (“Effect” below) (K. pneumoniae K97/09 [1]) was “failed to exert any improvement in the MIC values”, the “Effect” value [2] was “failed to exert any improvement in the MIC values” and the MIC (K. pneumoniae K97/09 [3]; K97/09) was > 256 µg/mL.
With CC(C)(O/N=C(\C(=O)N[C@@H]1C(=O)N2C(C(=O)[O-])=C(C[n+]3ccccc3)CS[C@H]12)c1csc(N)n1)C(=O)O [Ceftazidime] the “Median survival (days post-challenge)” value ([4]; Ceftazidime 150 mg/kg ip) was 56.5 days post-challenge, the “B. pseudomallei load in survivals (CFU/spleen)” value ([4]; Ceftazidime 150 mg/kg ip) was 2.6 × 10^5 CFU/spleen and the Number of deaths ([4]; Ceftazidime 150 mg/kg ip) was 6. The “total number of samples analyzed/samples with CFU > 10^8” value ([4]; Ceftazidime 150 mg/kg ip) was 4/1, the “Median survival (days post-challenge)” value ([4]; Ceftazidime 300 mg/kg ip) was “(>50% survival)” and the “B. pseudomallei load in survivals (CFU/spleen)” value ([4]; Ceftazidime 300 mg/kg ip) was 2.4 × 10^5 CFU/spleen. The Number of deaths ([4]; Ceftazidime 300 mg/kg ip) was 3, the “total number of samples analyzed/samples with CFU > 10^8” value ([4]; Ceftazidime 300 mg/kg ip) was 3/1 and the “Survival rate at the 62-day endpoint” value ([4]; ceftazidime monotherapy 150 mg/kg) was 40%. The “Survival rate at the 62-day endpoint” value ([4]; ceftazidime monotherapy 300 mg/kg) was 70%.
For CCCC(=O)N[C@@H](CCCNC(=N)N)C(=O)N1CCC[C@H]1C(=O)N[C@@H](CC(=O)O)C(=O)N[C@@H](CCCCN)C(=O)N1CCC[C@H]1C(=O)N[C@@H](CCCNC(=N)N)C(=O)N1CCC[C@H]1C(=O)N[C@@H](Cc1ccc(O)cc1)C(=O)N[C@@H](CC(C)C)C(=O)N1CCC[C@H]1C(=O)N[C@@H](CCCNC(=N)N)C(=O)N1CCC[C@H]1C(=O)N[C@@H](CCCNC(=N)N)C(=O)N1CCC[C@H]1C(=O)N1CCC[C@H]1C(=O)N[C@@H](CCCNC(=N)N)C(=O)N1CCC[C@H]1C(=O)N[C@H](C(=O)N[C@@H](CCCNC(=N)N)C(N)=O)C(C)C [Example 3, Bu-RPDKPRPYLPRPRPPRPVR-NH2] (Butyryl-RPDKPRPYLPRPRPPRPVR-NH2), the MIC (P. aeruginosa ATCC 47085) was 96.3 ± 3.2 µM (≈ 233 µg/mL), the MIC (K. Pneumoniae ATCC 13883) was 2.2 ± 0.4 µM (≈ 5.32 µg/mL) and the MIC (E. Coli ATCC 29222) was 6.5 ± 2.6 µM (≈ 15.7 µg/mL). For the same molecule, the MIC (A. Baumannii ATCC 19606) was >100 µM.
CCCCC(=O)N[C@@H](CCCNC(=N)N)C(=O)N1CCC[C@H]1C(=O)N[C@@H](CC(=O)O)C(=O)N[C@@H](CCCCN)C(=O)N1CCC[C@H]1C(=O)N[C@@H](CCCNC(=N)N)C(=O)N1CCC[C@H]1C(=O)N[C@@H](Cc1ccc(O)cc1)C(=O)N[C@@H](CC(C)C)C(=O)N1CCC[C@H]1C(=O)N[C@@H](CCCNC(=N)N)C(=O)N1CCC[C@H]1C(=O)N[C@@H](CCCNC(=N)N)C(=O)N1CCC[C@H]1C(=O)N1CCC[C@H]1C(=O)N[C@@H](CCCNC(=N)N)C(=O)N1CCC[C@H]1C(=O)N[C@H](C(=O)N[C@@H](CCCNC(=N)N)C(N)=O)C(C)C [Example 4, Va-RPDKPRPYLPRPRPPRPVR-NH2] (Pentanoyl-RPDKPRPYLPRPRPPRPVR-NH2) showed an MIC (P. aeruginosa ATCC 47085) of 82.0 ± 5.0 µM (≈ 200 µg/mL), an MIC (K. Pneumoniae ATCC 13883) of 2.1 ± 0.0 µM (≈ 5.11 µg/mL) and an MIC (E. Coli ATCC 29222) of 5.6 ± 1.8 µM (≈ 13.6 µg/mL). The MIC (A. Baumannii ATCC 19606) was >100 µM.
CC(C)C[C@H](NC(=O)[C@H](Cc1ccc(O)cc1)NC(=O)[C@@H]1CCCN1C(=O)[C@H](CCCNC(=N)N)NC(=O)[C@@H]1CCCN1C(=O)[C@H](CCCCN)NC(=O)[C@H](CC(=O)O)NC(=O)[C@@H]1CCCN1C(=O)[C@H](CCCNC(=N)N)N=C(N(C)C)N(C)C)C(=O)N1CCC[C@H]1C(=O)N[C@@H](CCCNC(=N)N)C(=O)N1CCC[C@H]1C(=O)N[C@@H](CCCNC(=N)N)C(=O)N1CCC[C@H]1C(=O)N1CCC[C@H]1C(=O)N[C@@H](CCCNC(=N)N)C(=O)N1CCC[C@H]1C(=O)N[C@H](C(=O)N[C@@H](CCCNC(=N)N)C(N)=O)C(C)C [Example 5, Gu-RPDKPRPYLPRPRPPRPVR-NH2] (X2-PDKPRPYLPRPRPPRPVR-NH2; N-terminus assumed) gave an MIC (P. aeruginosa ATCC 47085) of 64.7 ± 2.1 µM (≈ 158 µg/mL), an MIC (K. Pneumoniae ATCC 13883) of 1.5 ± 0.4 µM (≈ 3.67 µg/mL) and an MIC (E. Coli ATCC 29222) of 5.8 ± 2.2 µM (≈ 14.2 µg/mL). The MIC (A. Baumannii ATCC 19606) was >100 µM.
For CC(C)C[C@H](NC(=O)[C@H](Cc1ccc(O)cc1)NC(=O)[C@@H]1CCCN1C(=O)[C@H](CCCNC(=N)N)NC(=O)[C@@H]1CCCN1C(=O)[C@H](CCCCN)NC(=O)[C@H](CC(=O)O)NC(=O)[C@@H]1CCCN1C(=O)[C@H](CCCNC(=N)N)NC(=O)C1(N)CCCCC1)C(=O)N1CCC[C@H]1C(=O)N[C@@H](CCCNC(=N)N)C(=O)N1CCC[C@H]1C(=O)N[C@@H](CCCNC(=N)N)C(=O)N1CCC[C@H]1C(=O)N1CCC[C@H]1C(=O)N[C@@H](CCCNC(=N)N)C(=O)N1CCC[C@H]1C(=O)N[C@H](C(=O)N[C@@H](CCCNC(=N)N)C(=O)O)C(C)C [Example 6, Chex-RPDKPRPYLPRPRPPRPVR-OH] (H-[Ac6c]RPDKPRPYLPRPRPPRPVR-OH), the MIC (P. aeruginosa ATCC 47085) was >100 µM, the MIC (K. Pneumoniae ATCC 13883) was 2.0 ± 0.1 µM (≈ 4.95 µg/mL) and the CC50 (in vitro) was 48.1 ± 3.4 µM. For the same molecule, the MIC (E. Coli ATCC 29222) was 6.7 ± 1.3 µM (≈ 16.6 µg/mL) and the MIC (A. Baumannii ATCC 19606) was >100 µM.
Work on CC(C)C[C@H](NC(=O)[C@H](Cc1ccc(O)cc1)NC(=O)[C@@H]1CCCN1C(=O)[C@H](CCCNC(=N)N)NC(=O)[C@@H]1CCCN1C(=O)[C@H](CCCCN)NC(=O)[C@H](CC(=O)O)NC(=O)[C@@H]1CCCN1C(=O)[C@H](CCCNC(=N)N)NC(=O)C1(N)CCCCC1)C(=O)N1CCC[C@H]1C(=O)N[C@@H](CCCNC(=N)N)C(=O)N1CCC[C@H]1C(=O)N[C@@H](CCCNC(=N)N)C(=O)N1CCC[C@H]1C(=O)N1CCC[C@H]1C(=O)N[C@@H](CCCNC(=N)N)C(=O)N1CCC[C@H]1C(=O)N[C@H](C(=O)N[C@@H](CCCNC(=N)N)C(=O)NN)C(C)C [Example 7, Chex-RPDKPRPYLPRPRPPRPVR-NH-NH2] (H-[Ac6c]RPDKPRPYLPRPRPPRPVR-NHNH2; N-terminus assumed) yielded an MIC (P. aeruginosa ATCC 47085) of 28.9 ± 2.7 µM (≈ 72 µg/mL), an MIC (K. Pneumoniae ATCC 13883) of 1.7 ± 0.1 µM (≈ 4.23 µg/mL) and an MIC (E. Coli ATCC 29222) of 4.0 ± 1.5 µM (≈ 9.96 µg/mL). It also gave an MIC (A. Baumannii ATCC 19606) of 52.5 ± 9.5 µM (≈ 131 µg/mL).
In the case of “Ac-RPDKPRPYLPRPRPPRPVR-NH2 [Example 2, Ac-RPDKPRPYLPRPRPPRPVR-NH2]”, the MIC (P. aeruginosa ATCC 47085) is reported as >100 µM, the MIC (K. Pneumoniae ATCC 13883) is reported as 2.0 ± 0.2 µM and the MIC (E. Coli ATCC 29222) is reported as 3.6 ± 0.1 µM. The MIC (A. Baumannii ATCC 19606) was >100 µM.
In the case of “I: H-[Ac6c]RPDKPRPYLGRPRPPRPVR[Dab]-NH2 / II: H-[Ac6c]RPDKPRPYLGRPRPPRPVR (amide I:21-II:C) [Gly11, (H-Chex-Arg-Pro-Asp-Lys-Pro-Arg-Pro-Tyr-Leu-Gly-Arg-Pro-Arg-Pro-Pro-Arg-Pro-Val-Arg)2-Dab-NH2]”, the “Effect” value (K. pneumoniae K97/09 [1]) is reported as “failed to exert any improvement in the MIC values”, the “Effect” value [2] is reported as “failed to exert any improvement in the MIC values” and the “MACI MIC” value ([5]; Acinetobacter baumannii (MACI)) is reported as >256 µg/mL. For the same molecule, the “KPC MIC” value (K. pneumoniae K97/09 [3]; K97/09) was >256 µg/mL.
In the case of “I: H-[Ac6c]RPDKPRPYLPRPRPPRPVR[Dab]-NH2 / II: H-[Ac6c]RPDKPRPYLPRPRPPRPVR (amide I:21-II:C; C-terminus assumed) [Example A3-APO, (H-Chex-Arg-Pro-Asp-Lys-Pro-Arg-Pro-Tyr-Leu-Pro-Arg-Pro-Arg-Pro-Pro-Arg-Pro-Val-Arg)2-Dab]”, the “MACI MIC” value ([5]; BAA-1805) is reported as 32 to 64 µg/mL and the “KPC MIC” value (K. pneumoniae K97/09 [3]; K97/09) is reported as 32 to 64 µg/mL.
In the case of colistin, the ΣFIC (K. pneumoniae K97/09 [1]) is reported as 0.08, the “MACI MIC” value ([5]; Acinetobacter baumannii (MACI)) is reported as <0.5 µg/mL and the “KPC MIC” value (K. pneumoniae K97/09 [3]) is reported as 64 µg/mL. The MIC (K. pneumoniae K97/09 [3]) was 64 µg/mL and the MIC [6] was < 0.5 µg/mL.
